Results on 18 compounds are retold here after US20240425517A1, “NOVEL COMPOUND FOR DEGRADATION OF TARGET PROTEIN OR POLYPEPTIDE BY POLYUBIQUITINATION” (PRAZER THERAPEUTICS INC., priority 2021, published 2024).

This test deals with T1, BRD4 proteins (Homo sapiens, UniProt O60885).
T1 construct: endogenous in cells; host or cells: MM.1S
The test can be described thus: Degradation of BRD4 protein in MM.1S cell lines (Western blot densitometry). The test is classed as cell-based. The settings on record: MM.1S cells, 10 μM, 24 hours. In outline:
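MM.1S cells in RPMI-1640 with 10% FBS were treated with each degrader at 10 μM for 24 h. RIPA lysates were analysed by SDS-PAGE/Western blot with β-actin as reference, and BRD4 band densitometry was scored as reduction <40% (+), 40-<70% (++) or ≥70% (+++).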
In general terms: A western blot detects proteins with antibodies after separation by electrophoresis.
Regarding `Cc1sc2c(c1C)C(c1ccc(Cl)cc1)=N[C@@H](CC(=O)NCCCCCNC(=O)c1ccc(C#CCN)o1)c1nnc(C)n1-2.Cl` [4-167′, (S)-5-(3-aminoprop-1-yn-1-yl)-N-(5-(2-(4-(4-chlorophenyl)-2,3,9-trimethyl-6H-thieno[3,2-f][1,2,4]triazolo[4,3-a][1,4]diazepin-6-yl)acetamido)pentyl)furan-2-carboxamide hydrochloride], the “BRD4 degrading capacity (%)” value is reported as “++ (the degrading capacity was reduced by 40% to 70% (exclusive of 70))”.

In the case of `COC(=O)c1ccc(N(C)C(=O)CCCNC(=O)C[C@@H]2N=C(c3ccc(Cl)cc3)c3c(sc(C)c3C)-n3c(C)nnc32)cc1C#CCN.Cl` [5-150′, methyl (S)-2-(3-aminoprop-1-yn-1-yl)-4-(4-(2-(4-(4-chlorophenyl)-2,3,9-trimethyl-6H-thieno[3,2-f][1,2,4]triazolo[4,3-a][1,4]diazepin-6-yl)acetamido)-N-methylbutanamido)benzoate hydrochloride], the “BRD4 degrading capacity (%)” value is “+++ (the degrading capacity was reduced by 70% or more)”.

For `Cc1sc2c(c1C)C(c1ccc(Cl)cc1)=N[C@@H](CC(=O)Nc1ccc(C#CCN)cc1)c1nnc(C)n1-2.Cl` [1-1′, (S)—N-(4-(3-aminoprop-1-yn-1-yl)phenyl)-2-(4-(4-chlorophenyl)-2,3,9-trimethyl-6H-thieno[3,2-f][1,2,4]triazolo[4,3-a][1,4]diazepin-6-yl)acetamide hydrochloride], the “BRD4 degrading capacity (%)” value is given as “++ (the degrading capacity was reduced by 40% to 70% (exclusive of 70))”.

Take `COC(=O)c1ccc(NC(=O)CCCCCCCCCC(=O)OCC[C@@H]2N=C(c3ccc(Cl)cc3)c3c(sc(C)c3C)-n3c(C)nnc32)cc1C#CCN.Cl` [5-110′, methyl (S)-2-(3-aminoprop-1-yn-1-yl)-4-(11-(2-(4-(4-chlorophenyl)-2,3,9-trimethyl-6H-thieno[3,2-f][1,2,4]triazolo[4,3-a][1,4]diazepin-6-yl)ethoxy)-11-oxoundecanamido)benzoate hydrochloride]: the “BRD4 degrading capacity (%)” value is “++ (the degrading capacity was reduced by 40% to 70% (exclusive of 70))”.

`Cc1sc2c(c1C)C(c1ccc(Cl)cc1)=N[C@@H](CC(=O)NCCCC(=O)Nc1ccc(C#CCN)cc1)c1nnc(C)n1-2.Cl` [4-162′, (S)—N-(4-(3-aminoprop-1-yn-1-yl)phenyl)-4-(2-(4-(4-chlorophenyl)-2,3,9-trimethyl-6H-thieno[3,2-f][1,2,4]triazolo[4,3-a][1,4]diazepin-6-yl)acetamido)butanamide hydrochloride]: the “BRD4 degrading capacity (%)” value is recorded as “+++ (the degrading capacity was reduced by 70% or more)”.

With `COC(=O)c1ccc(C(=O)N(C)C2CCN(C(=O)C[C@@H]3N=C(c4ccc(Cl)cc4)c4c(sc(C)c4C)-n4c(C)nnc43)CC2)cc1C#CCN` [5-153′, methyl (S)-2-(3-aminoprop-1-yn-1-yl)-4-((1-(2-(4-(4-chlorophenyl)-2,3,9-trimethyl-6H-thieno[3,2-f][1,2,4]triazolo[4,3-a][1,4]diazepin-6-yl)acetyl)piperidin-4-yl)(methyl)carbamoyl)benzoate trifluoroacetic acid], the “BRD4 degrading capacity (%)” value is listed as “+++ (the degrading capacity was reduced by 70% or more)”.

Consider `COC(=O)c1cc(NC(=O)CCNC(=O)C[C@@H]2N=C(c3ccc(Cl)cc3)c3c(sc(C)c3C)-n3c(C)nnc32)ccc1C#CCN.Cl` [4-126′, methyl (S)-2-(3-aminoprop-1-yn-1-yl)-5-(3-(2-(4-(4-chlorophenyl)-2,3,9-trimethyl-6H-thieno[3,2-f][1,2,4]triazolo[4,3-a][1,4]diazepin-6-yl)acetamido)propanamido)benzoate hydrochloride], for which the “BRD4 degrading capacity (%)” value was “++ (the degrading capacity was reduced by 40% to 70% (exclusive of 70))”.

Take `COC(=O)c1ccc(NC(=O)C2CCN(C(=O)C[C@@H]3N=C(c4ccc(Cl)cc4)c4c(sc(C)c4C)-n4c(C)nnc43)CC2)cc1C#CC1(N)CC1` [5-155′, methyl (S)-2-((1-aminocyclopropyl)ethynyl)-4-(1-(2-(4-(4-chlorophenyl)-2,3,9-trimethyl-6H-thieno[3,2-f][1,2,4]triazolo[4,3-a][1,4]diazepin-6-yl)acetyl)piperidine-4-carboxamido)benzoate trifluoroacetic acid]: the “BRD4 degrading capacity (%)” value is listed as “++ (the degrading capacity was reduced by 40% to 70% (exclusive of 70))”.

Take `COC(=O)c1ccc(NC2CCC(NC(=O)C[C@@H]3N=C(c4ccc(Cl)cc4)c4c(sc(C)c4C)-n4c(C)nnc43)CC2)cc1C#CCN` (stereo partly drawn) [5-35′, methyl (S)-2-(3-aminoprop-1-yn-1-yl)-4-((4-(2-(4-(4-chlorophenyl)-2,3,9-trimethyl-6H-thieno[3,2-f][1,2,4]triazolo[4,3-a][1,4]diazepin-6-yl)acetamido)cyclohexyl)amino)benzoate trifluoroacetic acid]: the “BRD4 degrading capacity (%)” value was “+++ (the degrading capacity was reduced by 70% or more)”.

Consider `COC(=O)c1ccc(NC(=O)C2CCN(C(=O)C[C@@H]3N=C(c4ccc(Cl)cc4)c4c(sc(C)c4C)-n4c(C)nnc43)CC2)cc1C#CCNS(N)(=O)=O` [5-154′, methyl (S)-4-(1-(2-(4-(4-chlorophenyl)-2,3,9-trimethyl-6H-thieno[3,2-f][1,2,4]triazolo[4,3-a][1,4]diazepin-6-yl)acetyl)piperidine-4-carboxamido)-2-(3-(sulfamoylamino)prop-1-yn-1-yl)benzoate trifluoroacetic acid], for which the “BRD4 degrading capacity (%)” value is recorded as “+++ (the degrading capacity was reduced by 70% or more)”.

In the case of `Cc1sc2c(c1C)C(c1ccc(Cl)cc1)=N[C@@H](CC(=O)NCCC(=O)Nc1cccc(C#CCN)c1)c1nnc(C)n1-2.Cl` [4-161′, (S)—N-(3-(3-aminoprop-1-yn-1-yl)phenyl)-3-(2-(4-(4-chlorophenyl)-2,3,9-trimethyl-6H-thieno[3,2-f][1,2,4]triazolo[4,3-a][1,4]diazepin-6-yl)acetamido)propanamide hydrochloride], the “BRD4 degrading capacity (%)” value was “+++ (the degrading capacity was reduced by 70% or more)”.

In the case of `Cc1ccc(NC(=O)CCCNC(=O)C[C@@H]2N=C(c3ccc(Cl)cc3)c3c(sc(C)c3C)-n3c(C)nnc32)cc1C#CCN.Cl` [5-65′, (S)—N-(3-(3-aminoprop-1-yn-1-yl)-4-methylphenyl)-4-(2-(4-(4-chlorophenyl)-2,3,9-trimethyl-6H-thieno[3,2-f][1,2,4]triazolo[4,3-a][1,4]diazepin-6-yl)acetamido)butanamide hydrochloride], the “BRD4 degrading capacity (%)” value is “+ (the degrading capacity of each BRD4 degrader was reduced by less than 40%)”.

`Cc1sc2c(c1C)C(c1ccc(Cl)cc1)=N[C@@H](CC(=O)N1CCN(C(=O)c3ccc(C#CCN)o3)CC1)c1nnc(C)n1-2.Cl` [4-227′, (S)-1-(4-(5-(3-aminoprop-1-yn-1-yl)furan-2-carbonyl)piperazin-1-yl)-2-(4-(4-chlorophenyl)-2,3,9-trimethyl-6H-thieno[3,2-f][1,2,4]triazolo[4,3-a][1,4]diazepin-6-yl)ethan-1-one hydrochloride]: the “BRD4 degrading capacity (%)” value is reported as “++ (the degrading capacity was reduced by 40% to 70% (exclusive of 70))”.

For `COC(=O)c1ccc(C(=O)N2CCC3(CC2)CN(C(=O)C[C@@H]2N=C(c4ccc(Cl)cc4)c4c(sc(C)c4C)-n4c(C)nnc42)C3)cc1C#CCN` [5-39′, methyl (S)-2-(3-aminoprop-1-yn-1-yl)-4-(2-(2-(4-(4-chlorophenyl)-2,3,9-trimethyl-6H-thieno[3,2-f][1,2,4]triazolo[4,3-a][1,4]diazepin-6-yl)acetyl)-2,7-diazaspiro[3.5]nonane-7-carbonyl)benzoate trifluoroacetic acid], the “BRD4 degrading capacity (%)” value is “++ (the degrading capacity was reduced by 40% to 70% (exclusive of 70))”.

On to `COC(=O)c1cc(N2CCN(CCCNC(=O)C[C@@H]3N=C(c4ccc(Cl)cc4)c4c(sc(C)c4C)-n4c(C)nnc43)CC2)ccc1C#CCN.Cl` [5-165′, methyl (S)-2-(3-aminoprop-1-yn-1-yl)-5-(4-(3-(2-(4-(4-chlorophenyl)-2,3,9-trimethyl-6H-thieno[3,2-f][1,2,4]triazolo[4,3-a][1,4]diazepin-6-yl)acetamido)propyl)piperazin-1-yl)benzoate hydrochloride], for which the “BRD4 degrading capacity (%)” value was “+++ (the degrading capacity was reduced by 70% or more)”.

`COC(=O)c1ccc(NC(=O)CCNC(=O)C[C@@H]2N=C(c3ccc(Cl)cc3)c3c(sc(C)c3C)-n3c(C)nnc32)cc1C#CCN.Cl` [5-4′, methyl (S)-2-(3-aminoprop-1-yn-1-yl)-4-(3-(2-(4-(4-chlorophenyl)-2,3,9-trimethyl-6H-thieno[3,2-f][1,2,4]triazolo[4,3-a][1,4]diazepin-6-yl)acetamido)propanamido)benzoate hydrochloride]: the “BRD4 degrading capacity (%)” value was “++ (the degrading capacity was reduced by 40% to 70% (exclusive of 70))”.

As to `COC(=O)c1ccc(C(=O)NCCCNC(=O)C2CCN(C(=O)C[C@@H]3N=C(c4ccc(Cl)cc4)c4c(sc(C)c4C)-n4c(C)nnc43)CC2)cc1C#CCN.Cl` [5-27′, methyl (S)-2-(3-aminoprop-1-yn-1-yl)-4-((3-(1-(2-(4-(4-chlorophenyl)-2,3,9-trimethyl-6H-thieno[3,2-f][1,2,4]triazolo[4,3-a][1,4]diazepin-6-yl)acetyl)piperidine-4-carboxamido)propyl)carbamoyl)benzoate hydrochloride], the “BRD4 degrading capacity (%)” value is “++ (the degrading capacity was reduced by 40% to 70% (exclusive of 70))”.

As for `Cc1sc2c(c1C)C(c1ccc(Cl)cc1)=N[C@@H](CC(=O)Nc1ccc(CO)c(C#CCN)c1)c1nnc(C)n1-2.Cl` [3-27′, (S)—N-(3-(3-aminoprop-1-yn-1-yl)-4-(hydroxymethyl)phenyl)-2-(4-(4-chlorophenyl)-2,3,9-trimethyl-6H-thieno[3,2-f][1,2,4]triazolo[4,3-a][1,4]diazepin-6-yl)acetamide hydrochloride], the “BRD4 degrading capacity (%)” value is on record as “++ (the degrading capacity was reduced by 40% to 70% (exclusive of 70))”.
